{
  "source": "ChEMBL document CHEMBL5465560",
  "about": "“Selectivity Literature for EUbOPEN Chemogenomic Library” (2024)",
  "key": {"[1]": {"biological_target": "T1, Serine/threonine-protein kinase 17A (Homo sapiens) (UniProt Q9UEE5)", "T1 sequence (whole entry)": "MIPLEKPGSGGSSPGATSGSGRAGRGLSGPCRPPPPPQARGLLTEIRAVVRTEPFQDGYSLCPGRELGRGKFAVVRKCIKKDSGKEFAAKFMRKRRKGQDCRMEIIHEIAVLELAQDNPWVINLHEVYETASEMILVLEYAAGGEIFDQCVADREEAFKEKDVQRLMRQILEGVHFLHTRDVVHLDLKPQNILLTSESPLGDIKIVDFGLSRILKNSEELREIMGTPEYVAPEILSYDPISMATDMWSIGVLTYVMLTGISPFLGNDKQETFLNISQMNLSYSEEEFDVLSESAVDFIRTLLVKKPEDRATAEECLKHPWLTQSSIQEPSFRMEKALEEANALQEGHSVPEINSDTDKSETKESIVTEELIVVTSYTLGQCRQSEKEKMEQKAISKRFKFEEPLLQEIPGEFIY", "assay": "Selectivity interaction (KinomeScan (DiscoverX)) EUB0000229b STK17A", "details": "at 10 µM"}, "[2]": {"biological_target": "T2, Cyclin-G-associated kinase (Homo sapiens) (UniProt O14976)", "T2 sequence (whole entry)": "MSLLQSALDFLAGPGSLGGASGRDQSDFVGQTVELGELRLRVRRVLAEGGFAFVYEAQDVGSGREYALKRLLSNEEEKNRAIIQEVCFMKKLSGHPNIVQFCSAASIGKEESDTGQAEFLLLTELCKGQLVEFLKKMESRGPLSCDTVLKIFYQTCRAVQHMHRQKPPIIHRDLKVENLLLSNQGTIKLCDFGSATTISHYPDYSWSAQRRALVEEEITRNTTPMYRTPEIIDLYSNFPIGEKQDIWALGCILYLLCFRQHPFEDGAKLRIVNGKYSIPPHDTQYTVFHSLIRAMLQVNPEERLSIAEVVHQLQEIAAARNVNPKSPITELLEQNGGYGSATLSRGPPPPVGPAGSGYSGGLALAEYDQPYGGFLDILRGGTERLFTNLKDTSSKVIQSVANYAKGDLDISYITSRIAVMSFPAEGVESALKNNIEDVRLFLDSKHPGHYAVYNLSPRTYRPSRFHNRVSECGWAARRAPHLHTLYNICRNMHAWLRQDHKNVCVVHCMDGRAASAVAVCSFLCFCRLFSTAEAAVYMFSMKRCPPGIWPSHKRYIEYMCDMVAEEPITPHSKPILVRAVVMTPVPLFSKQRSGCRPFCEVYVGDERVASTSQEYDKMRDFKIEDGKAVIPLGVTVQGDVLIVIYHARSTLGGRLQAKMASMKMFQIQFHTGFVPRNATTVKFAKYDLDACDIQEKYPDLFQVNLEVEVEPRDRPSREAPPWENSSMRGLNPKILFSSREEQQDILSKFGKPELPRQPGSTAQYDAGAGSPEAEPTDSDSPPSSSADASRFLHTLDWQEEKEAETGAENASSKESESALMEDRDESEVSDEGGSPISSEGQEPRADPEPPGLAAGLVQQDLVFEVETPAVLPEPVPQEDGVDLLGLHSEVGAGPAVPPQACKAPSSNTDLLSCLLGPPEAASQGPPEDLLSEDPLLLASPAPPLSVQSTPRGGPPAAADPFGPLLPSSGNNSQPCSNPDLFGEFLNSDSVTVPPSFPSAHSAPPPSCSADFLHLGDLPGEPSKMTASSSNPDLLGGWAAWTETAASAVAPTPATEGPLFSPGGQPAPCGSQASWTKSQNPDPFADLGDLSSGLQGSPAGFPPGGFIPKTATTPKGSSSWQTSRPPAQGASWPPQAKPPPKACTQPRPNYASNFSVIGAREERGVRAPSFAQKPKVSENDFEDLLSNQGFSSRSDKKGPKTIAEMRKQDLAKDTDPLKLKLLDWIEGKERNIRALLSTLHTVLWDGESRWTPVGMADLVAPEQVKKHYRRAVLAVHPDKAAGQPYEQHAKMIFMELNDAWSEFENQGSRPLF", "details": "at 10 µM"}, "[3]": {"biological_target": "T3, Serine/threonine-protein kinase Nek5 (Homo sapiens) (UniProt Q6P3R8)", "T3 sequence (whole entry)": "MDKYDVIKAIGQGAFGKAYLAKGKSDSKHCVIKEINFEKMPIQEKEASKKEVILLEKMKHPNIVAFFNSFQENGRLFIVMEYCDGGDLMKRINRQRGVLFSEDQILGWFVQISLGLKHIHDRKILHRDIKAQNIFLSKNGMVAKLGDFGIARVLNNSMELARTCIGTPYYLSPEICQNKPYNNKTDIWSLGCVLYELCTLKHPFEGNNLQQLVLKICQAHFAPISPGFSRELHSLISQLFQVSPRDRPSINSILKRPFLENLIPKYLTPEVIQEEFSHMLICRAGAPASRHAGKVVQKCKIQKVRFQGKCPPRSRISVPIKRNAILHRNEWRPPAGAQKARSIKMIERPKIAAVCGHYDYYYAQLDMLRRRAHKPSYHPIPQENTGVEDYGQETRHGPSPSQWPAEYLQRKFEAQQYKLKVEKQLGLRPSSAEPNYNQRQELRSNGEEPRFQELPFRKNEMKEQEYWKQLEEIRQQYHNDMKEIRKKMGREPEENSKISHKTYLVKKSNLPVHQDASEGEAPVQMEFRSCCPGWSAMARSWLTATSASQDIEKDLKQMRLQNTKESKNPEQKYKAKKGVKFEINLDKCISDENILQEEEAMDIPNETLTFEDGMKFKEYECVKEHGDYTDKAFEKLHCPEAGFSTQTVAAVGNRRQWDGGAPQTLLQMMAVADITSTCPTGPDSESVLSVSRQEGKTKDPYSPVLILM", "details": "at 10 µM"}, "[4]": {"biological_target": "Protein polybromo-1 (Homo sapiens) (UniProt Q86U86)", "sequence (Q86U86 whole entry)": "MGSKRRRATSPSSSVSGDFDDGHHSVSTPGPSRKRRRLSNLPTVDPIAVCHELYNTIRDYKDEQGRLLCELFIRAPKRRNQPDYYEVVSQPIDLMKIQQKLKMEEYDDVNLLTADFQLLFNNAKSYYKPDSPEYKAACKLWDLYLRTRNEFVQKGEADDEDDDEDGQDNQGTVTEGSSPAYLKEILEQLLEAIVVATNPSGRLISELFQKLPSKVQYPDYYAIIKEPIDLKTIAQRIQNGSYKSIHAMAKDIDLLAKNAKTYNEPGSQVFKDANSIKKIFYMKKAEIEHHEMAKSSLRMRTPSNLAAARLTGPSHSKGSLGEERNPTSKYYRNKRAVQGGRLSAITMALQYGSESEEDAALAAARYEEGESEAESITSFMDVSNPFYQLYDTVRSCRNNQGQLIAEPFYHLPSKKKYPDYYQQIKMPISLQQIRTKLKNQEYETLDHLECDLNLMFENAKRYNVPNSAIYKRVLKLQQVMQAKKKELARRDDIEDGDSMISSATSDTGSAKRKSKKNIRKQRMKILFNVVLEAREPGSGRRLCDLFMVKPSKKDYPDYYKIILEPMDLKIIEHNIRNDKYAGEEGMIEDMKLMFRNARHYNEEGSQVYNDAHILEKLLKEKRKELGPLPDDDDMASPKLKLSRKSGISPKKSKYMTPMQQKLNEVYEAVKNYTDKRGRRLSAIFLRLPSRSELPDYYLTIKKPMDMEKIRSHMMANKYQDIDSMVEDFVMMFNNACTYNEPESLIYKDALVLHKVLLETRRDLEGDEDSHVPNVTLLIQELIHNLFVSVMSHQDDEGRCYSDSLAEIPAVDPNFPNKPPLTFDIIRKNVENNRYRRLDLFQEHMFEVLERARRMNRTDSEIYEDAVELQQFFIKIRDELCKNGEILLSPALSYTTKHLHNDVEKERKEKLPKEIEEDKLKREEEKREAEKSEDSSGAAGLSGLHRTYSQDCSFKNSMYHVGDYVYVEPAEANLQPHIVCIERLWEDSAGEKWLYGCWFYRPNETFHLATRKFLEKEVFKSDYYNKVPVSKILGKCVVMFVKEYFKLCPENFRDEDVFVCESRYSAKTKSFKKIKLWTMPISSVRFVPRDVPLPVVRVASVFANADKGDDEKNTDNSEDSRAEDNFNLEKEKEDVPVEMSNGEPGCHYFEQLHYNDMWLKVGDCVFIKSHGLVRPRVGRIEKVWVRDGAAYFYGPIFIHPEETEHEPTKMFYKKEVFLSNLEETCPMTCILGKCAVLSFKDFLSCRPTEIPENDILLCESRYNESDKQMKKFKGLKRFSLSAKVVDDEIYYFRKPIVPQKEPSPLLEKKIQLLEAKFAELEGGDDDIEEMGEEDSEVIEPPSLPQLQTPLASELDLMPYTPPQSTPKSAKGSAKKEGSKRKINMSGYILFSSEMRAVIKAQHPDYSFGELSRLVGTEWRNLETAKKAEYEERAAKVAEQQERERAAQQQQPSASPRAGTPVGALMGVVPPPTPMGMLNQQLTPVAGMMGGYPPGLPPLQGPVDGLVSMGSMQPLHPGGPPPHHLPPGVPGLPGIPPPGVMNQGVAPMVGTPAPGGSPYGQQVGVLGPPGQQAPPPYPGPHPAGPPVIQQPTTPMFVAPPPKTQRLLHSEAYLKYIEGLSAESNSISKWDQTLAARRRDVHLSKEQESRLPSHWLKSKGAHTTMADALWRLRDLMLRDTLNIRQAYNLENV", "assay": "Selectivity interaction (Bromodomain panel (DSF asssay)) EUB0000270b PBRM1"}, "[5]": {"tested_on": "Mast/stem cell growth factor receptor Kit (Homo sapiens), P10721 [V559D,T670I]", "sequence (P10721 whole entry V559D/T670I)": "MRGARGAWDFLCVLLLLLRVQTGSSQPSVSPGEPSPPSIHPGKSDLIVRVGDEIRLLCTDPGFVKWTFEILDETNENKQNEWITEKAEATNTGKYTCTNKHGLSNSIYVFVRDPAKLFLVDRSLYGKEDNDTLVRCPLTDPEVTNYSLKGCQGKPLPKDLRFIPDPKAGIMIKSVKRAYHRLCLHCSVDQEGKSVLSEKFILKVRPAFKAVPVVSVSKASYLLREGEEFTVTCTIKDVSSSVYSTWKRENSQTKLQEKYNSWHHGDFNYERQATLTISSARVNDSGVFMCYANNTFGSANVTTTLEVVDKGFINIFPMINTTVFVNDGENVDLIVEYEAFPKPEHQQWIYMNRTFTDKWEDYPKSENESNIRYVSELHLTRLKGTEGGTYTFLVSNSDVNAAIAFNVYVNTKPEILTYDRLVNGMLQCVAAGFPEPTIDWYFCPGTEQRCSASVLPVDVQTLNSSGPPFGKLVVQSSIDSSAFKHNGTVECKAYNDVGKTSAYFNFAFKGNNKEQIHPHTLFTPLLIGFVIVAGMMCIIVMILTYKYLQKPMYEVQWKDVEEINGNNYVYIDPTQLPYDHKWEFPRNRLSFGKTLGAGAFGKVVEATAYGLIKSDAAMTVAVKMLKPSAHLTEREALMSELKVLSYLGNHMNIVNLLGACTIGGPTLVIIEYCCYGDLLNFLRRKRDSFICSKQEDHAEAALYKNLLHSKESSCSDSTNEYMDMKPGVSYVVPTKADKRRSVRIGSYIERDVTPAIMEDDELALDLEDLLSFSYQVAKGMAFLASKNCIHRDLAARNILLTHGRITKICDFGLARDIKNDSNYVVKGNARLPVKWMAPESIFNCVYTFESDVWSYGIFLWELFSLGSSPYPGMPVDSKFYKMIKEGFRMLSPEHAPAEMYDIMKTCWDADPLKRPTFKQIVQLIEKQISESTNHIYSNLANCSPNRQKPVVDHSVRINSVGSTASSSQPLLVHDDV", "details": "at 10 µM"}, "[6]": {"biological_target": "Vascular endothelial growth factor receptor 1 (Homo sapiens) (UniProt P17948)", "sequence (P17948 whole entry)": "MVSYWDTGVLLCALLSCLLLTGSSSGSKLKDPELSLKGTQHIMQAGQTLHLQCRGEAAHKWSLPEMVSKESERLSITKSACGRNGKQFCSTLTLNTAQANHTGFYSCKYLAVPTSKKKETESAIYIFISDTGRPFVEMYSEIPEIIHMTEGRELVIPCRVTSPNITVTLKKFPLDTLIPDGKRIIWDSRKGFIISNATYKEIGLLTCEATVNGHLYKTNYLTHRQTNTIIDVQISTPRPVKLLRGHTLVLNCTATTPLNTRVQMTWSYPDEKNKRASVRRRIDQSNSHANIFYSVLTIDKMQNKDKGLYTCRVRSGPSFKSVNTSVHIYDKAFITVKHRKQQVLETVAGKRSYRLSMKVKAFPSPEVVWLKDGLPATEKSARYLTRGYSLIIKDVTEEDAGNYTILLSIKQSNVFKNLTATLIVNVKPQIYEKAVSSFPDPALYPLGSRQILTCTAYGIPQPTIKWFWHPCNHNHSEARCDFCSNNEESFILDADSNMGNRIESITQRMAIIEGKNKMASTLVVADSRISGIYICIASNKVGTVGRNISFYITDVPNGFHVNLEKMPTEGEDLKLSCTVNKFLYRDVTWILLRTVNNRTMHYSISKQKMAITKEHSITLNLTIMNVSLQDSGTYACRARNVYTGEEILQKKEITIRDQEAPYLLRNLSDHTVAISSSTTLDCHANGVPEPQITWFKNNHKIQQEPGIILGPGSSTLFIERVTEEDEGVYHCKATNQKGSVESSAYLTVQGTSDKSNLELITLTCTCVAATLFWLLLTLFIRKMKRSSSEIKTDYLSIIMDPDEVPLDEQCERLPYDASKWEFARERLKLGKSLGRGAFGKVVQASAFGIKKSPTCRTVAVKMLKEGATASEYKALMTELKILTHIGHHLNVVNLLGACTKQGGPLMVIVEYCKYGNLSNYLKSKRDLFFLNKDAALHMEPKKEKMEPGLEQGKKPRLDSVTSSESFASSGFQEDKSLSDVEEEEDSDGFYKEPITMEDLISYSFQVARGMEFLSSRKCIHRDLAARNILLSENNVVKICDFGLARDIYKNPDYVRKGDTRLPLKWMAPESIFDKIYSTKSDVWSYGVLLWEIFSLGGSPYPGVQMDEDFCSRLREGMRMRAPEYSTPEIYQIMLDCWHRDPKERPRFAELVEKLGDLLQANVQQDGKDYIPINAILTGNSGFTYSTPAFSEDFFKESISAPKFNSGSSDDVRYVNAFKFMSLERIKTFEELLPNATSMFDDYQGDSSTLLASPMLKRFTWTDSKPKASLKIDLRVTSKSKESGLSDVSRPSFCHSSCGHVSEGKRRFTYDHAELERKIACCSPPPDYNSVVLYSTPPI", "assay": "Selectivity interaction (KinomeScan (DiscoverX)) EUB0000607a FLT1", "details": "at 10 µM"}},
  "data": [
    {"smiles": "COc1cc(N(C)c2ccnc3ccc(C(F)(F)F)cc23)cc(OC)c1OC", "values": [
      {"measurement": "% binding", "setting": "[1]", "value": 92, "unit": "%"}
    ]},
    {"smiles": "CCN(CC)CCCCNc1ncc2cc(-c3cc(OC)cc(OC)c3)c(NC(=O)NC(C)(C)C)nc2n1", "values": [
      {"measurement": "% of control", "setting": "[2]", "value": 100, "unit": "%"},
      {"measurement": "% of control", "setting": "[3]", "value": 100, "unit": "%"}
    ]},
    {"smiles": "Cc1cc(CN)cc(C)c1-c1ncn(C)c1-c1cncn1C", "values": [
      {"measurement": "dTM", "setting": "[4]", "value": -2.3, "unit": "K"}
    ]},
    {"smiles": "Cc1cc([C@@H](C)Nc2ccccc2C(=O)O)c2nc(N3CCOCC3)cc(=O)n2c1", "note": "[AZD-6482]", "values": [
      {"measurement": "% of control", "setting": "[5]", "value": 91, "unit": "%"}
    ]},
    {"smiles": "CNC(=O)Nc1ccc(-c2nc(N3CC4CCC(C3)O4)c3cnn(C4CCC5(CC4)OCCO5)c3n2)cc1", "values": [
      {"measurement": "% of control", "setting": "[6]", "value": 92, "unit": "%"}
    ]}
  ]
}
